Assay results reported in US11130756B2, “[1,2,4]Triazolo[4,3-A]pyridinyl substituted indole compounds” (BRISTOL-MYERS SQUIBB COMPANY, priority 2017, dated 2021).

How the values were obtained:
Format in all cases: cell-based
[1] = molecular target: T1, human TLR8 (Homo sapiens, UniProt Q9NR97); assay: TLR8 inhibition reporter assay (HEK-Blue, SEAP); conditions: HEK-Blue cells overexpressing human TLR8, R848 15.9 μM, 22 hour incubation
T1 construct: host or cells: HEK-Blue cells
T1 sequence (Q9NR97 27-1041): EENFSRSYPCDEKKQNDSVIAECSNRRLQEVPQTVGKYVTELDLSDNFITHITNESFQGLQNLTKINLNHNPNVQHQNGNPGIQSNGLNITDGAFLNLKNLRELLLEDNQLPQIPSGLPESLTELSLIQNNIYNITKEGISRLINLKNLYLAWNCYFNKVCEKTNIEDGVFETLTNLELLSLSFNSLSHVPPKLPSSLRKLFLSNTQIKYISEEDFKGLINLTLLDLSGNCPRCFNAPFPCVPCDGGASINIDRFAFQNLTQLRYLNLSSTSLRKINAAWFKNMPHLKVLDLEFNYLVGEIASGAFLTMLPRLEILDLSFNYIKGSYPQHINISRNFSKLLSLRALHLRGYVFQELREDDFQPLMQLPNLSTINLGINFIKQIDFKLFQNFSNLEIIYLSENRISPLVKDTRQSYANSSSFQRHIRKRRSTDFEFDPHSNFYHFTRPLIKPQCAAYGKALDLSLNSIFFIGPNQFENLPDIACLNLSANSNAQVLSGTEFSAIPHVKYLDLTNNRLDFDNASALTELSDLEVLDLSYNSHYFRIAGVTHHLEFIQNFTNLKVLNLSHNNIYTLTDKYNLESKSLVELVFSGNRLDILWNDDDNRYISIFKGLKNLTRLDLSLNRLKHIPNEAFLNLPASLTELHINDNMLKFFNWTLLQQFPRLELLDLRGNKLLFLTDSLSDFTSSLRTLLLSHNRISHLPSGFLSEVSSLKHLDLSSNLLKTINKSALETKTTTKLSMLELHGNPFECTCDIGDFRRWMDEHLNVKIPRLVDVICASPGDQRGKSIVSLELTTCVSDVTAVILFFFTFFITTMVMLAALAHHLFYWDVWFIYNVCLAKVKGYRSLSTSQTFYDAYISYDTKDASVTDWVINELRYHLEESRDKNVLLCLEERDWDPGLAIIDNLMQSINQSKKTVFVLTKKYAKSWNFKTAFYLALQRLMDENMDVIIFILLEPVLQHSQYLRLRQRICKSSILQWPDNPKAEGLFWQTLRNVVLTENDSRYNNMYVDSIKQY
Method in brief: (§1)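 Screening used HEK-Blue cells overexpressing one human TLR (7, 8 or 9) and an IFN-β minimal promoter–NF-κB/AP-1 SEAP construct. Stimulation lasted 22 h at 37 °C with receptor-specific agonist: gardiquimod, R848 or ODN2006 at 7.5 μM, 15.9 μM and 5 nM.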

[2] = molecular target: T2, human TLR9 (Homo sapiens, UniProt Q9NR96); assay: TLR9 inhibition reporter assay (HEK-Blue, SEAP); conditions: HEK-Blue cells overexpressing human TLR9, ODN2006 5 nM, 22 hour incubation
T2 construct: host or cells: HEK-Blue cells
T2 sequence (Q9NR96 26-1032): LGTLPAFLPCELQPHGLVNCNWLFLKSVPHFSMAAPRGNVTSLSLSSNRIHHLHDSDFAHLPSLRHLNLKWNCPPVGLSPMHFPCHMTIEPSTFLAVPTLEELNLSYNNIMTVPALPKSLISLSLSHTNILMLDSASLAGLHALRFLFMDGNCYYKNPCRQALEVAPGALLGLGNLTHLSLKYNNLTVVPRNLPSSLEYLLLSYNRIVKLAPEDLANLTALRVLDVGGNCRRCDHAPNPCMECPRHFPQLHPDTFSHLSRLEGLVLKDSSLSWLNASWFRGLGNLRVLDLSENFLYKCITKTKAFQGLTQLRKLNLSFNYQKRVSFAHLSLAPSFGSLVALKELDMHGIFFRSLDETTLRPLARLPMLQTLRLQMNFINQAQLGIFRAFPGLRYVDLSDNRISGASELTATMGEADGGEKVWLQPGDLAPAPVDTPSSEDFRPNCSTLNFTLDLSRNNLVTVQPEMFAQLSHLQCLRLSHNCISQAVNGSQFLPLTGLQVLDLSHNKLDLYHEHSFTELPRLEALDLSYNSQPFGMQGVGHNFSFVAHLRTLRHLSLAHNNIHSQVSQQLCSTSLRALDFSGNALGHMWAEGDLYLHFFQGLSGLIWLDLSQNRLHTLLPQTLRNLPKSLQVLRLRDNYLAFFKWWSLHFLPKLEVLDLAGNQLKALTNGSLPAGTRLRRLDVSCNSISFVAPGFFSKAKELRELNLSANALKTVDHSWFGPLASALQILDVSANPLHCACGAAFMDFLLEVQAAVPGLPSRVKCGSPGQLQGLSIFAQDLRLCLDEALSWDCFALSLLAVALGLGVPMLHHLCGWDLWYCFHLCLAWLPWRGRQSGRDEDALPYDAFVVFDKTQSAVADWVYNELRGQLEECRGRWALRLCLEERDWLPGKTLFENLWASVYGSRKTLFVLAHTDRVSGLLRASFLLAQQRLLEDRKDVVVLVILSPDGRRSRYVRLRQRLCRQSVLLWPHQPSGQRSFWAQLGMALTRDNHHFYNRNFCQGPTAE
Method in brief: as §1

[3] = molecular target: T3, human TLR7 (Homo sapiens, UniProt Q9NYK1); assay: TLR7 inhibition reporter assay (HEK-Blue, SEAP); conditions: HEK-Blue cells overexpressing human TLR7, gardiquimod 7.5 μM, 22 hour incubation
T3 construct: host or cells: HEK-Blue cells
T3 sequence (Q9NYK1 27-1049): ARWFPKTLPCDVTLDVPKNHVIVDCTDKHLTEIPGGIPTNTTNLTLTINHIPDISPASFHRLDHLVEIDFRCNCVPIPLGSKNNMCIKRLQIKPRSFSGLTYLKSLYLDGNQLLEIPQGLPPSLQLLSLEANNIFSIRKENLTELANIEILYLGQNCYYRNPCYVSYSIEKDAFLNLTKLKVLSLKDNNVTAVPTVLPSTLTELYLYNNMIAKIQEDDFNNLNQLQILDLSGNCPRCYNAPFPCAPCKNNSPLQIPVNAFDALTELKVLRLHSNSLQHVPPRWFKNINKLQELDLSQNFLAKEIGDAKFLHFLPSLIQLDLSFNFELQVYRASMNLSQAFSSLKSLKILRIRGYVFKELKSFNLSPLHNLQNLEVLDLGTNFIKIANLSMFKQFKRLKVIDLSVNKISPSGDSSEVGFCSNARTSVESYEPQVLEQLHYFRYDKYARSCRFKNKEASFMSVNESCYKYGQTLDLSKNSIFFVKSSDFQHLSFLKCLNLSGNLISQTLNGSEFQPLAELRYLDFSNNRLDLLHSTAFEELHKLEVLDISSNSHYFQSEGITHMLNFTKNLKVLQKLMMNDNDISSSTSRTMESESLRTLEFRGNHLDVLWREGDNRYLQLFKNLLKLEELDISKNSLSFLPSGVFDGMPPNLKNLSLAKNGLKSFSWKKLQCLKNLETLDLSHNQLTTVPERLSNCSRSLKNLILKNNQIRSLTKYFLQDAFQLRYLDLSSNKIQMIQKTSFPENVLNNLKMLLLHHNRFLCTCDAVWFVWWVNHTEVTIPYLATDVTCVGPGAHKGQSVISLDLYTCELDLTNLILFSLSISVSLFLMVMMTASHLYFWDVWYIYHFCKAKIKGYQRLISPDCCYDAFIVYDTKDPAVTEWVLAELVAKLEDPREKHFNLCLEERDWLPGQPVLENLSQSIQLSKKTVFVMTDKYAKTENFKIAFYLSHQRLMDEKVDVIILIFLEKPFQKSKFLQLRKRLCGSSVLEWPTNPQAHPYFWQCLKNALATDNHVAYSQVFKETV
Method in brief: as §1

| SMILES | IC50 [1] [nM] | IC50 [2] [nM] | IC50 [3] [nM] |
| --- | --- | --- | --- |
| Cc1cc(-c2[nH]c3ccc(C4CCN(C5CCOCC5)CC4)cc3c2C(C)C)c(C)n2cnnc12 [Example 77, 6-(3-isopropyl-5-(1-(tetrahydro-2H-pyran-4-yl)piperidin-4-yl)-1H-indol-2-yl)-5,8-dimethyl-[1,2,4]triazolo[4,3-a]pyridine] | 3.6 | 4190 | 55.9 |
| Cc1c(-c2[nH]c3ccc(C4CCN(C5CCOCC5)CC4)cc3c2C(C)C)cn2cnnc2c1C [Example 78, 6-(3-isopropyl-5-(1-(tetrahydro-2H-pyran-4-yl)piperidin-4-yl)-1H-indol-2-yl)-7,8-dimethyl-[1,2,4]triazolo[4,3-a]pyridine] | 4.6 | 1780 | 1.3 |
| Cc1c(-c2[nH]c3ccc(C4CCN(CC5(C)COC5)CC4)cc3c2C(C)C)cn2cnnc2c1C [Example 79, 6-(3-isopropyl-5-(1-((3-methyloxetan-3-yl)methyl)piperidin-4-yl)-1H-indol-2-yl)-7,8-dimethyl-[1,2,4]triazolo[4,3-a]pyridine] | 2 | 3530 | 1.1 |
| Cc1c(-c2[nH]c3ccc(C4CCN(CC5(C)COC5)CC4)cc3c2C(C)C)cn2cnnc2c1Cl [Example 80, 8-chloro-6-(3-isopropyl-5-(1-((3-methyloxetan-3-yl)methyl)piperidin-4-yl)-1H-indol-2-yl)-7-methyl-[1,2,4]triazolo[4,3-a)pyridine] | 5.8 | 4550 | 2.3 |
| Cc1c(-c2[nH]c3ccc(C4CCN(C5CCOCC5)CC4)cc3c2C(C)C)cn2cnnc2c1Cl [Example 81, 8-chloro-6-(3-isopropyl-5-(1-(tetrahydro-2H-pyran-4-yl)piperidin-4-yl)-1H-indol-2-yl)-7-methyl-[1,2,4]triazolo[4,3-a]pyridine] | 10.8 | 2260 | 2.5 |
| Cc1c(-c2[nH]c3ccc(C4CCN(C5COC5)CC4)cc3c2C(C)C)cn2cnnc2c1Cl [Example 82, 8-chloro-6-(3-isopropyl-5-(1-(oxetan-3-yl)piperidin-4-yl)-1H-indol-2-yl)-7-methyl-[1,2,4] triazolo[4,3-a]pyridine] | 153 | ≥ 50000 | 4.9 |
| Cc1c(-c2[nH]c3ccc(C4CCN(Cc5cn(C)nn5)CC4)cc3c2C(C)C)cn2cnnc2c1C [Example 83, 6-(3-isopropyl-5-(1-((1-methyl-1H-1,2,3-triazol-4-yl)methyl)piperidin-4-yl)-1H-indol-2-yl)-7,8-dimethyl-[1,2,4]triazolo[4,3-a]pyridine] | 7.2 | 875 | 3.4 |
| Cc1c(-c2[nH]c3ccc(C4CCN(Cc5cn(C)nn5)CC4)cc3c2C(C)C)cn2cnnc2c1Cl [Example 84, 8-chloro-6-(3-isopropyl-5-(1-((1-methyl-1H-1,2,3-triazol-4-yl)methyl)piperidin-4-yl)-1H-indol-2-yl)-7-methyl-[1,2,4]triazolo[4,3-a]pyridine] | 21.6 | 1110 | 5.7 |
| Cc1c(-c2[nH]c3ccc(C4CCN(C5CCOC(C)(C)C5)CC4)cc3c2C(C)C)cn2cnnc2c1C (stereo not drawn) [Example 85, 6-(5-(1-(2,2-dimethyltetrahydro-2H-pyran-4-yl)piperidin-4-yl)-3-isopropyl-1H-indol-2-yl)-7,8-dimethyl-[1,2,4]triazolo[4,3-a]pyridine] | 6.7 | 1990 | 2.5 |
| COc1cc(-c2[nH]c3ccc(C4CCN(C5COC5)CC4)cc3c2C(C)C)cn2cnnc12 [Example 86, 6-(3-isopropyl-5-(1-(oxetan-3-yl)piperidin-4-yl)-1H-indol-2-yl)-8-methoxy-[1,2,4]triazolo[4,3-a]pyridine] | 26.8 | 6200 | 1.2 |
| Cc1c(-c2[nH]c3ccc(C4CCN(C5CC(C)OC(C)C5)CC4)cc3c2C(C)C)cn2cnnc2c1C (stereo not drawn) [Example 87, 6-(5-(1-(2,6-dimethyltetrahydro-2H-pyran-4-yl)piperidin-4-yl)-3-isopropyl-1H-indol-2-yl)-7,8-dimethyl-[1,2,4]triazolo[4,3-a]pyridine] | 12.8 | 1300 | 2.4 |
| COc1cc(-c2[nH]c3ccc(C4CCN(C5CCOCC5)CC4)cc3c2C(C)C)cn2cnnc12 [Example 88, 6-(3-isopropyl-5-(1-(tetrahydro-2H-pyran-4-yl)piperidin-4-yl)-1H-indol-2-yl)-8-methoxy-[1,2,4]triazolo[4,3-a]pyridine] | 33.4 | 344 | 1.9 |
| COc1ncc(CN2CCC(c3ccc4[nH]c(-c5cn6cnnc6c(C)c5C)c(C(C)C)c4c3)CC2)cn1 [Example 89, 6-(3-isopropyl-5-(1-((2-methoxypyrimidin-5-yl)methyl)piperidin-4-yl)-1H-indol-2-yl)-7,8-dimethyl-[1,2,4]triazolo[4,3-a]pyridine] | 3.3 | 773 | 0.1 |
